Values quoted from earlier work, collected in US20250319028A1, “PHARMACEUTICAL FORMULATION COMPRISING TACROLIMUS, METHOD FOR THE PREPARATION THEREOF AND USE” (PHARMATHEN S.A., priority 2021, published 2025).

Assays:
[1] = reported, patients

| Solubility in ethanol (ethanol) | Solubility in heptane (heptane) | Solubility in water (water) | Compound | Overall incidence of drug-induced nephrotoxicity [1] [%] |
| --- | --- | --- | --- | --- |
| freely soluble | practically insoluble | practically insoluble | C=CC[C@@H]1/C=C(\C)C[C@H](C)C[C@H](OC)[C@H]2O[C@@](O)(C(=O)C(=O)N3CCCC[C@H]3C(=O)O[C@H](/C(C)=C/[C@@H]3CC[C@@H](O)[C@H](OC)C3)[C@H](C)[C@@H](O)CC1=O)[C@H](C)C[C@@H]2OC [Tacrolimus monohydrate] |  |
|  |  |  | C=CC[C@@H]1/C=C(\C)C[C@H](C)C[C@H](OC)[C@H]2O[C@@](O)(C(=O)C(=O)N3CCCC[C@H]3C(=O)O[C@H](/C(C)=C/[C@@H]3CC[C@@H](O)[C@H](OC)C3)[C@H](C)[C@@H](O)CC1=O)[C@H](C)C[C@@H]2OC [Tacrolimus] | ≤ 44 |
